Experimental data published in patent US9096632B2, “Modulator of activity of adenylate cyclase” (Public University Corporation Yokohama City University, priority 2010, dated 2015).

What was measured:
[1] = test system: cardiac function (LVEF) of isoproterenol-loaded mice; assay: Chronic catecholamine loading experiment (isoproterenol heart failure model); format: in vivo, mouse; conditions: 15 mg/kg/day for 7 days, osmotic mini-pump, with isoproterenol 60 mg/kg/day; C57BL/6N
Method: FIG. 9 Prophylactic effects on heart failure. Isoproterenol alone (60 mg/kg/day for 7 days) was administered to wild-type mice (C57BL/6N) for one week with an osmotic mini-pump (Alzet2001) (ISO). Other WT received isoproterenol with vidarabine, V2E, V3E or V5E (15 mg/kg/day for 7 days).
<Chronic Catecholamine Loading Experiment>
An osmotic mini-pump filled with isoproterenol was hypodermically implanted in mice, and isoproterenol was administered for 1 week continuously in a sustained-release manner (60 mg/kg). The cardiac function of mice (EF, ejection fraction) was measured by cardiac ultrasonography, and values before and after isoproterenol administration were compared. It is generally known that when isoproterenol is administered to mice with a mini-pump, their cardiac function (EF) decreases (i.e., they manifest heart failure).
Isoproterenol alone (60 mg/kg/day for 7 days) was administered to WT (C57BL/6N) for 1 week with an osmotic mini-pump (Alzet 2001). Other WT received isoproterenol and, at the same time, vidarabine, V2E, V3E or V5E (15 mg/kg/day for 7 days).

[2] = test system: pacing-induced atrial fibrillation; assay: Antiarrhythmic action: pacing-induced transient atrial fibrillation; format: in vivo, mouse; conditions: vidarabine 15 mg/kg/day, V2E, V3E, V5E 19.8 mg/kg/day, osmotic mini-pump; vs DMSO alone
Method: FIG. 14 Antiarrhythmic (atrial fibrillation inhibition) action. To healthy wild type mice (C57BL/6N), vidarabine (15 mg/kg/day), V2E, V3E or V5E (19.8 mg/kg/day) (all of which are dissolved in DMSO) or DMSO alone was administered with an osmotic mini-pump (Alzet 2001). Subsequently, voltage stimuli of 2.5 mA were applied to the mice for 60 seconds at intervals of 30 milliseconds with a transesophageal catheter (atrial tachypacing; Circ Res 97, 62-69, 2005) to induce transient atrial fibrillation. The duration of atrial fibration until the induced transient atrial fibrillation converted to a normal sinus rhythm was measured (n=4-8, means±SE).
After mice were inhalationally anesthetized with isoflurane, an electrode catheter (Millar: Model EPR800; size 1.1 F; length 4.5 cm) connected to an electrocardiogram amp for the purpose of recording intracardiac electrocardiogram was slowly inserted through the oral cavity into the esophagus, and fixed at a site where maximum P wave was recorded. The thus fixed electrode catheter was connected to an electrostimulator carefully enough to avoid any movement of its position. Thereafter, body surface electrogram was recorded by II lead. Subsequently, voltage stimuli of 2.5 mA were applied to mice for 60 seconds at intervals of 30 milliseconds to thereby induce transient atrial fibrillation. The time period during which the following phenomena can be confirmed from body surface electrogram was regarded as the duration of atrial P wave disappears from the baseline and the R-R intervals are not regular but produce arrhythmic pulse.
To healthy WT (C57BL/6N), each of vidarabine (15 mg/kg/day), V2E, V3E and V5E (19.8 mg/kg/day) (all of which were dissolved in DMSO) or DMSO alone was administered with an osmotic mini-pump (Alzet 2001). Subsequently, atrial fibrillation was induced under the above-described conditions, and the duration of atrial fibrillation until the induced atrial fibrillation converted to a normal sinus rhythm was measured (FIG. 14). This experiment was completed after confirming that the normal sinus rhythm was lasting for at least 5 minutes and that there was no recurrence of atrial fibrillation. For information, the maximum dose of vidarabine approved for use in the treatment of herpes in humans is 15 mg/kg/day for 10 days.

[3] = test system: adenylyl cyclase activity in the heart; assay: Membrane adenylyl cyclase assay, WT heart membrane, forskolin-stimulated; format: biochemical, mouse; conditions: 10 μM; wild-type mouse; heart vs lung
From the text: FIG. 3 Inhibitory effects of individual vidarabine derivatives on adenylyl cyclase activity in the striatum, heart and lung. With adenylyl cyclase activity in the presence of […] but in the absence of inhibitors being taken as 100, the reductions in adenylyl cyclase activity upon treatment with various inhibitors at the concentrations indicated on the horizontal axis are shown (n=4, means±S.E.).
(§1) <Membrane Adenylyl Cyclase Assay>
(§2) Striatal, cardiac and pulmonary tissues were removed from WT (C57BL) (Charles River Laboratories Japan, Inc.) and AC5KO (Circ. Res. 93: 364-371, 2003), both of which were 12-15 weeks of age after birth, and individual membrane protein fractions were prepared therefrom. The resultant membrane preparations were incubated with a reaction mixture (20 mM HEPES, pH 8, 5 mM MgCl2, 0.5 mM EDTA, pH 8, 0.1 mM ATP, 1 mM phospho creatine, 8 U/mL creatine phosphor kinase, 200 μM IBMX) at 30° C. in the presence of forskolin (an activator of adenylyl cyclase) (50 μM, Sigma Cat. No. F6886) and various compounds, to thereby allow production of cAMP. In this assay, striatum- or lung-derived membrane preparations were used in an amount of 1 μg, and heart-derived membrane preparation was used in an amount of 2 μg. 15 minutes (striatum and lung) or 30 minutes (heart) after its start, the reaction was terminated by adding trichloroacetate (TCA) solution to give a final concentration of 5%. Then, the protein was precipitated by centrifugation (13,500×g, 10 min).
(§3) In both membrane adenylyl cyclase assay and cAMP accumulation assay, the amount of cAMP contained in TCA solution was determined by radioimmunoassay using […].

[4] = test system: adenylyl cyclase activity in the striatum (type 5 adenylyl cyclase); assay: Membrane adenylyl cyclase assay, WT striatal membrane, forskolin-stimulated; format: biochemical, mouse; conditions: 10 μM; WT; striatum vs lung
Method: FIG. 2 Inhibitory effects of various compounds on adenylyl cyclase activity in mouse striatum. The striatum is part of the brain. Here, it is known that type 5 adenylyl cyclase occupies almost all of the enzyme activity. […] Relative values are shown with adenylyl cyclase activity in the presence of 50 μM forskolin but in the absence of inhibitors being taken as 100 (n=4, means±S.E.).
as §1, §2, §3

[5] = test system: cardiac myocytes in myocardial tissues; assay: TUNEL staining of myocardial tissues of chronic catecholamine-loaded mice; format: in vivo, mouse; conditions: mice of the chronic isoproterenol loading experiment
Method: FIG. 12 TUNEL stain of myocardial tissues. Apoptosis positive cardiac myocytes in the hearts of mice used in chronic catecholamine loading experiment (FIG. 9) were evaluated by TUNEL staining (n=4-6, means±SE).
<TUNEL Staining of Myocardial Tissues>
Apoptosis positive cells of the mice used in the chronic catecholamine loading experiment were evaluated by TUNEL staining.

[6] = vidarabine, background statement; cited from earlier work

SMILES | inhibition of the isoproterenol-induced decrease of cardiac function (LVEF) [1] | time for pacing-induced atrial fibrillation to convert to a normal sinus rhythm [2] | inhibition of adenylyl cyclase activity in heart relative to lung (tissue specificity) [3] | inhibition of adenylyl cyclase activity in striatum relative to lung (tissue specificity) [4] | apoptosis of cardiac myocytes induced by chronic catecholamine stimulation (TUNEL, myocardial tissue) [5] | water solubility [6]
CN(C)CC(=O)OC1C(CO)OC(n2cnc3c(N)ncnc32)C1O (stereo not drawn) [V3E, 3-O—(N,N-Dimethylglycyl)Vidarabine] | comparable to that of vidarabine | significantly shortened |  |  |  | 
CN(C)CC(=O)OC1C(O)C(CO)OC1n1cnc2c(N)ncnc21 (stereo not drawn) [V2E, 2-O—(N,N-Dimethylglycyl)Vidarabine] | comparable to that of vidarabine | significantly shortened | about 2.6 fold | about 3.0 fold | equally inhibited | 
CN(C)CC(=O)OCC1OC(n2cnc3c(N)ncnc32)C(O)C1O (stereo not drawn) [V5E, 5-O—(N,N-Dimethylglycyl)Vidarabine] | comparable to that of vidarabine | significantly shortened |  |  |  | 
Nc1ncnc2c1ncn2[C@@H]1O[C@H](CO)[C@@H](O)[C@@H]1O [vidarabine, reference compound] | significantly inhibited | significantly shortened | about 2.4 fold | about 2.8 fold | equally inhibited | poor
